Entries after “also recorded” stand apart in the source; their conditions may differ.
What was measured:
Assay type in all cases: in vivo, mouse
[1] = system: wild-type C57Bl/6 mice; assay: Open field test, off-target effects of AP in wild-type C57Bl/6 mice on HFD; settings: AP 10 mg/kg i.p. 3 days every 2 weeks for 8 weeks
Protocol: (§1) For off target effect measurements db/db and HDF mice (fed with HFD for 2 months prior treatment) were injected intraperitoneally (i.p.) with […] at 10 mg/kg or vehicle for 3 days every 2 weeks for 8 weeks.
(§2) Locomotor activity and anxiety-like behavior of mice were assessed in sound-insulated, rectangular activity chambers (Med Associates Inc., St Albans, Vt., USA: W×L×D=27 cm×27 cm×20 cm with continually running fans, infrared lasers, and sensors). Beam breaks were assessed in 2-minute bins over 30 minutes, converted automatically to current mouse location and distance travelled (cm), and recorded on a computer with Med-PC software Version 4.0. Before the test, mice were acclimatized to the room for 1-1.5 hours before being introduced into the chambers. Mice were habituated for 5 minutes in the Open Field chamber (without recording) then placed for another 5 minutes in the home cage. Afterwards, mice were introduced back to the chambers and all mouse movements were recorded for 30 minutes. Anxiety was quantified by the distance mice travelled in the central 25% of the chamber (zone 1) as a function of the total distance mice travelled and by frequencies of entries into zone 1.

[2] = system: INK-ATTAC;db/db mice; assay: Open field test, INK-ATTAC;db/db mice treated with AP20187; settings: AP20187 vs vehicle, 2 months
Protocol: (§3) INK-ATTAC mice were injected intraperitoneally (i.p.) with AP20187 (10 mg/kg) or vehicle for 3 days every 2 weeks for a total of 8-10 weeks.
as §2

[3] = system: db/db mice; assay: Open field test, off-target effects of AP in db/db mice; settings: AP 10 mg/kg i.p. 3 days every 2 weeks for 8 weeks
Protocol: as §1, §2

[4] = system: senescent cells in the hypothalamus; assay: TAF in hypothalamus close to the 3rd ventricle, INK-ATTAC mice; settings: HFD INK-ATTAC mice, AP20187 vs vehicle
Protocol: as §3
Paraffin sections were deparaffinized with Histoclear and hydrated in an ethanol gradient followed by water and PBS. Antigen was retrieved by incubation in 0.01M citrate buffer (pH 6.0) at 95° C. for 10 minutes. Slides were placed in blocking buffer (1:60 normal goat serum [S-1000, Vector Laboratories] in 0.1% BSA/PBS) for 60 minutes at room temperature. […] Primary antibodies used (Table 2) were diluted in blocking buffer and applied overnight at 4° C. The next day, slides were washed 3 times with PBS and incubated for 30 minutes with secondary goat, anti-rabbit antibody (1:200; Vector Laboratories #BA-1000) for TAF staining or for 60 minutes with secondary Alexa antibody (Table 1). For TAF staining, Fluorescein-Avidin in PBS (1:500; #A-2011, Vector Lab) was applied to each sample for 20 minutes. Slides were washed 3 times in PBS, which was followed by FISH for TAF detection. Briefly, tissues were crosslinked with 4% paraformaldehyde for 20 minutes and dehydrated in graded ethanol. Sections were denatured for 10 minutes at 80° C. in hybridization buffer (70% formamide (Sigma), 25 mM MgCl2, 0.1 M Tris (pH 7.2), and 5% blocking reagent [Roche]) containing 2.5 μg ml^−1 Cy-3-labelled telomere-specific (CCCTAA) peptide nucleic acid probe (Panagene), followed by hybridization for 2 hour at room temperature in the dark. Slides were washed twice with 70% formamide in 2×SSC for 15 minutes, followed by washes in 2×SSC and PBS for 10 minutes. Sections were mounted in Vectashield, DAPI-containing mounting media and imaged.
(§4) A single, 3 μm-thick section per mouse was used for TAF staining, while for Dcx and Plin2 staining was performed on three 10 μm-thick sections 80 μm-apart. To quantify periventricular lipid accumulation 10-30 images in the periventricular region were taken using the DM5500 widefield fluorescence microscope from Leica with a 10× (for frequency of periventricular glia) or ×40 (for ALISE phenotype of ependymal cells) objective lens. Number of Plin2-positive cells (for frequency of ALISE-positive periventricular glia) or area of Plin2-positive vesicles (for ALISE phenotype of ependymal cells) was assessed using ImageJ software. For identity assessment of Plin2+ cells, 10 μm-thick sections were stained with combination of antibodies for Iba1 (secondary antibody conjugated with Alexa Fluor 488), Plin2 (secondary antibody conjugated with Alexa Fluor 594), and Vimentin (secondary antibody conjugated with Alexa Fluor 647) and quantified for frequency of Plin2+ astrocytes (Iba1−, Vim+) and microglia (Iba1+) in the periventricular region. A separate staining for Plin2 (secondary antibody conjugated with Alexa Fluor 594) and NeuN (secondary antibody conjugated with Alexa Fluor 647) was used to determine frequency of Plin2+ neurons in periventricular region. For TAF quantification in depth Z stacking was used (images were captured as stacks separated by 0.4 μm with ×63 objective) followed by ImageJ analysis.

[5] = system: Plin2+ periventricular glia; assay: Periventricular Plin2+ and TAF-positive cells (lateral ventricle), HFD INK-ATTAC mice; settings: AP20187 vs vehicle
Protocol: as §3
Paraffin sections were deparaffinized with Histoclear and hydrated in an ethanol gradient followed by water and PBS. Antigen was retrieved by incubation in 0.01M citrate buffer (pH 6.0) at 95° C. for 10 minutes. Slides were placed in blocking buffer (1:60 normal goat serum [S-1000, Vector Laboratories] in 0.1% BSA/PBS) for 60 minutes at room temperature. […] Primary antibodies used (Table 2) were diluted in blocking buffer and applied overnight at 4° C. The next day, slides were washed 3 times with PBS and incubated for 30 minutes with secondary goat, anti-rabbit antibody (1:200; Vector Laboratories #BA-1000) for TAF staining or for 60 minutes with secondary Alexa antibody (Table 1). For TAF staining, Fluorescein-Avidin in PBS (1:500; #A-2011, Vector Lab) was applied to each sample for 20 minutes. Slides were washed 3 times in PBS, which was followed by FISH for TAF detection. […]
as §4, with “A separate staining for Plin2 (secondary antibody conjugated with Alexa Fluor 594) and NeuN (secondary antibody conjugated with Alexa Fluor 647) was used to determine frequency of Plin2+ neurons in periventricular region. For TAF quantification in depth Z stacking was used (images were captured as stacks separated by 0.4 μm with ×63 objective) followed by ImageJ analysis.” left out

[6] = system: brain cell populations; assay: CyTOF of brain cell populations, INK-ATTAC mice; settings: AP vs vehicle
Protocol: as §3
This technique uniquely combines time-of-flight mass spectrometry with metal-labelling technology to enable detection of up to 40 protein targets per cell. A panel of antibodies based on surface markers, transcription factors, and cytokines (see Table 1) was designed for brain mass cytometry/cytometry by time of flight (CyTOF). Each antibody was tagged with a rare metal isotope and its function verified by mass cytometry according to the factory manual (Multi Metal labelling Kits, Fluidigm, CA). A CyTOF-2 mass cytometer (Fluidigm, South San Francisco, Calif.) was used for data acquisition. Acquired data were normalized based on normalization beads (Ce140, Eu151, Eu153, Ho165, and Lu175). A single brain hemisphere was dissociated into a single-cell suspension using brain tissue dissociation kits (Adult Brain Dissociation Kit, Miltenyi Biotec Inc., CA). Collected cells were incubated with metal-conjugated antibodies and, for testing intracellular proteins, including transcription factors and cytokines, fixation and permeabilization was conducted according to the manufacturer's instructions (Transcription Factor Staining Buffer Set, eBioscience, San Diego, Calif.). CyTOF data were analyzed by Cytobank (Santa Clara, Calif.).

Q: `CC[C@H](C(=O)N1CCCC[C@H]1C(=O)O[C@H](CCc1ccc(OC)c(OC)c1)c1cccc(OCC(=O)NCC(CNC(=O)COc2cccc([C@@H](CCc3ccc(OC)c(OC)c3)OC(=O)[C@@H]3CCCCN3C(=O)[C@@H](CC)c3cc(OC)c(OC)c(OC)c3)c2)CN(C)C)c1)c1cc(OC)c(OC)c(OC)c1` [AP] was tested. Which “anxiety-like behavior in open field (distance in the center), off-target control” value [1] did it give?
A: The value was “no difference”.

Q: And the “anxiety-like behavior: distance travelled in the central area, open field” value [2]?
A: The value was “significantly reduced anxiety-like behavior”.

Q: What about the “number of entries into the central area, open field” value [2] of the same compound?
A: Its value is “not significantly increased”.

Q: And the “total distance travelled (activity), 30 minute open field” value [2]?
A: The value was “not affected; also recorded: did not alter”.

Q: What about the “anxiety-like behavior: distance travelled in the central area, open field” value ([2]; listed as AP20187) of the same compound?
A: The value was “significant difference”.

Q: And the “anxiety-like behavior by open field test, off-target control” value [3]?
A: The value was “no difference; also recorded: No off-target effects”.

Q: And the “% of NeuN-neg cells with 2 or more TAF, hypothalamus close to the 3rd ventricle” value [4]?
A: Its value is “significant decrease”.

Q: And the “% of NeuN-pos cells with 2 or more TAF, hypothalamus close to the 3rd ventricle” value [4]?
A: Its value is “significant decrease”.

Q: What about the “mean number of TAF in NeuN-neg cells, hypothalamus close to the 3rd ventricle” value [4] of the same compound?
A: The value was “significantly reduced”.

Q: What about the “mean number of TAF in NeuN-pos cells, hypothalamus close to the 3rd ventricle” value [4] of the same compound?
A: Its value is “significantly reduced”.

Q: And the “% of NeuN-neg cells with 2 or more TAF, hypothalamus close to the 3rd ventricle” value ([4]; listed as AP20187)?
A: The value was “significantly reduced”.

Q: And the “% of NeuN-pos cells with 2 or more TAF, hypothalamus close to the 3rd ventricle” value ([4]; listed as AP20187)?
A: Its value is “significantly reduced”.

Q: And the “Plin2+ cells (cells containing lipid droplets) in the periventricular area” value [5]?
A: Its value is “significant reduction”.

Q: What about the “cells bearing senescent markers (NeuN negative, TAF-positive cells) in the periventricular region” value [5] of the same compound?
A: The value was “significant reduction”.

Q: And the “Plin2+ cells (cells containing lipid droplets) in the periventricular area” value ([5]; listed as AP20187)?
A: The value was “reduced lipid droplets”.

Q: And the “ependymal cells (CD133+), CyTOF” value ([6]; HFD INK-ATTAC mice)?
A: Its value is “significantly increased; also recorded: replenish”.

Q: And the “immature neurons (Dcx+), CyTOF” value ([6]; HFD INK-ATTAC mice)?
A: Its value is “significantly increased; also recorded: partial recovery”.

Q: And the “neuronal precursor cells (Nestin+), CyTOF” value ([6]; HFD INK-ATTAC mice)?
A: The value was “replenish; also recorded: significantly increased”.

Q: And the “frequency of endothelial cells (CD146+), CyTOF” value ([6]; INK-ATTAC mice)?
A: Its value is “did not alter”.

Q: What about the “frequency of mature neurons (NeuN+), CyTOF” value ([6]; INK-ATTAC mice) of the same compound?
A: Its value is “did not alter”.

Q: What about the “frequency of microglia (CD11b+, CD45-), CyTOF” value ([6]; INK-ATTAC mice) of the same compound?
A: The value was “did not alter”.

Q: And the “frequency of oligodendrocytes (CNPase+ or OSP+), CyTOF” value ([6]; INK-ATTAC mice)?
A: Its value is “did not alter”.

Reference: patent US20210379068A1, “METHODS AND MATERIALS FOR TREATING NEUROPSYCHIATRIC DISORDERS” (Mayo Foundation for Medical Education and Research, priority 2018, published 2021)
